# Results reported in patent US20230111310A1, “CARBOXYLIC ACID DERIVATIVE-SUBSTITUTED IMINO ARYL COMPOUND, PREPARATION METHOD THEREFOR, HERBICIDAL COMPOSITION AND USE THEREOF” (Qingdao Kingagroot Chemical Compound Co., Ltd., priority 2020, published 2023).
# Test system: Soybeans
# Test: Pre-emergence stage, crop selectivity
# Type: in vivo
# Conditions: 30 g/ha, 4 weeks
# Experimental: (§1) The activity level criteria for plant damage (i.e., growth control rate) are as follows:
# (§2) The aforementioned seeds of monocotyledonous and dicotyledonous weeds and main crops were put into a plastic pot loaded with soil and covered with 0.5-2 cm soil. The test compounds of the present invention was dissolved with acetone, then added with tween 80, diluted by a certain amount of water to reach a certain concentration, and sprayed immediately after sowing. The obtained seeds were incubated for 4 weeks in the greenhouse after spraying and the test results were observed. It was observed that the herbicide mostly had excellent effect at the application rate of 500, 250, 125, 60, 30, 15, 7.5 g/ha, especially to weeds such as Echinochloa crusgalli. Digitaria sanguinalis and Abutilon theophrasti, etc. And many compounds had good selectivity for corn, cotton, wheat, rice, soybean, and peanut etc. In addition, evaluate the weed control effect with the above activity standard level.
row,SMILES,plant damage level Soybeans
1,CC/C(C)=N/OC(=O)[C@@H](C)O/N=C/c1cc(-n2c(=O)cc(C(F)(F)F)n(C)c2=O)c(F)cc1Cl [249(R)],0 (Level 0: growth control rate is less than 5%)
2,COC/C(C)=N/OC(=O)[C@@H](C)O/N=C/c1cc(-n2c(=O)cc(C(F)(F)F)n(C)c2=O)c(F)cc1Cl [253(R)],0 (Level 0: growth control rate is less than 5%)

# Test system: corn
# Test: Pre-emergence stage, crop selectivity
# Type: in vivo
# Conditions: 30 g/ha, 4 weeks
# Experimental: as §1, §2
row,SMILES,plant damage level Corn
1,CC/C(C)=N/OC(=O)[C@@H](C)O/N=C/c1cc(-n2c(=O)cc(C(F)(F)F)n(C)c2=O)c(F)cc1Cl [249(R)],0 (Level 0: growth control rate is less than 5%)
2,COC/C(C)=N/OC(=O)[C@@H](C)O/N=C/c1cc(-n2c(=O)cc(C(F)(F)F)n(C)c2=O)c(F)cc1Cl [253(R)],0 (Level 0: growth control rate is less than 5%)

# Test system: cotton
# Test: Pre-emergence stage, crop selectivity
# Type: in vivo
# Conditions: 30 g/ha, 4 weeks
# Experimental: as §1, §2
row,SMILES,plant damage level Cotton
1,CC/C(C)=N/OC(=O)[C@@H](C)O/N=C/c1cc(-n2c(=O)cc(C(F)(F)F)n(C)c2=O)c(F)cc1Cl [249(R)],0 (Level 0: growth control rate is less than 5%)
2,COC/C(C)=N/OC(=O)[C@@H](C)O/N=C/c1cc(-n2c(=O)cc(C(F)(F)F)n(C)c2=O)c(F)cc1Cl [253(R)],0 (Level 0: growth control rate is less than 5%)

# Test system: Peanut
# Test: Pre-emergence stage, crop selectivity
# Type: in vivo
# Conditions: 30 g/ha, 4 weeks
# Experimental: as §1, §2
row,SMILES,plant damage level Peanut
1,CC/C(C)=N/OC(=O)[C@@H](C)O/N=C/c1cc(-n2c(=O)cc(C(F)(F)F)n(C)c2=O)c(F)cc1Cl [249(R)],0 (Level 0: growth control rate is less than 5%)
2,COC/C(C)=N/OC(=O)[C@@H](C)O/N=C/c1cc(-n2c(=O)cc(C(F)(F)F)n(C)c2=O)c(F)cc1Cl [253(R)],0 (Level 0: growth control rate is less than 5%)

# Test system: Descurainia sophia
# Test: Weeding effect in pre-emergence stage
# Type: in vivo
# Conditions: 30 g/ha, 4 weeks
# Experimental: as §1, §2
row,SMILES,activity level (growth control rate) Descurainia sophia
1,CC/C(C)=N/OC(=O)[C@@H](C)O/N=C/c1cc(-n2c(=O)cc(C(F)(F)F)n(C)c2=O)c(F)cc1Cl [249(R)],5 (Level 5: growth control rate is above 85%)
2,COC/C(C)=N/OC(=O)[C@@H](C)O/N=C/c1cc(-n2c(=O)cc(C(F)(F)F)n(C)c2=O)c(F)cc1Cl [253(R)],5 (Level 5: growth control rate is above 85%)

# Test system: Amaranthus retroflexus
# Test: Weeding effect in pre-emergence stage
# Type: in vivo
# Conditions: 30 g/ha, 4 weeks
# Experimental: as §1, §2
row,SMILES,activity level (growth control rate) Amaranthus retroflexus
1,CC/C(C)=N/OC(=O)[C@@H](C)O/N=C/c1cc(-n2c(=O)cc(C(F)(F)F)n(C)c2=O)c(F)cc1Cl [249(R)],5 (Level 5: growth control rate is above 85%)
2,COC/C(C)=N/OC(=O)[C@@H](C)O/N=C/c1cc(-n2c(=O)cc(C(F)(F)F)n(C)c2=O)c(F)cc1Cl [253(R)],5 (Level 5: growth control rate is above 85%)

# Test system: Capsella bursa-pastoris
# Test: Weeding effect in pre-emergence stage
# Type: in vivo
# Conditions: 30 g/ha, 4 weeks
# Experimental: as §1, §2
row,SMILES,activity level (growth control rate) Capsella bursa-pastoris
1,CC/C(C)=N/OC(=O)[C@@H](C)O/N=C/c1cc(-n2c(=O)cc(C(F)(F)F)n(C)c2=O)c(F)cc1Cl [249(R)],5 (Level 5: growth control rate is above 85%)
2,COC/C(C)=N/OC(=O)[C@@H](C)O/N=C/c1cc(-n2c(=O)cc(C(F)(F)F)n(C)c2=O)c(F)cc1Cl [253(R)],5 (Level 5: growth control rate is above 85%)

# Test system: Abutilon theophrasti
# Test: Weeding effect in pre-emergence stage
# Type: in vivo
# Conditions: 30 g/ha, 4 weeks
# Experimental: as §1, §2
row,SMILES,activity level (growth control rate) Abutilon theophrasti
1,CC/C(C)=N/OC(=O)[C@@H](C)O/N=C/c1cc(-n2c(=O)cc(C(F)(F)F)n(C)c2=O)c(F)cc1Cl [249(R)],5 (Level 5: growth control rate is above 85%)
2,COC/C(C)=N/OC(=O)[C@@H](C)O/N=C/c1cc(-n2c(=O)cc(C(F)(F)F)n(C)c2=O)c(F)cc1Cl [253(R)],5 (Level 5: growth control rate is above 85%)

# Test system: Setaria viridis
# Test: Weeding effect in pre-emergence stage
# Type: in vivo
# Conditions: 30 g/ha, 4 weeks
# Experimental: as §1, §2
row,SMILES,activity level (growth control rate) Setaria viridis
1,CC/C(C)=N/OC(=O)[C@@H](C)O/N=C/c1cc(-n2c(=O)cc(C(F)(F)F)n(C)c2=O)c(F)cc1Cl [249(R)],5 (Level 5: growth control rate is above 85%)
2,COC/C(C)=N/OC(=O)[C@@H](C)O/N=C/c1cc(-n2c(=O)cc(C(F)(F)F)n(C)c2=O)c(F)cc1Cl [253(R)],5 (Level 5: growth control rate is above 85%)

# Test system: Veronica didyma Tenore
# Test: Weeding effect in pre-emergence stage
# Type: in vivo
# Conditions: 30 g/ha, 4 weeks
# Experimental: as §1, §2
row,SMILES,activity level (growth control rate) Veronica didyma Tenore
1,CC/C(C)=N/OC(=O)[C@@H](C)O/N=C/c1cc(-n2c(=O)cc(C(F)(F)F)n(C)c2=O)c(F)cc1Cl [249(R)],5 (Level 5: growth control rate is above 85%)
2,COC/C(C)=N/OC(=O)[C@@H](C)O/N=C/c1cc(-n2c(=O)cc(C(F)(F)F)n(C)c2=O)c(F)cc1Cl [253(R)],5 (Level 5: growth control rate is above 85%)

# Test system: Digitaria sanguinalis
# Test: Weeding effect in post-emergence stage
# Type: in vivo
# Conditions: Dose 15 g/ha; level of fresh weight growth control rate
# In short: (§3)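 Weeds were treated post-emergence at 2-3 leaves with compound doses from 7.5 up to 500 g/ha, formulated in acetone–Tween 80 with methyl oleate synergist. Efficacy was assessed as growth control after 3 weeks.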
row,SMILES,"Weeding effect in post-emergence stage, Digitaria sanguinalis"
1,CC/C(C)=N/OC(=O)[C@@H](C)O/N=C/c1cc(-n2c(=O)cc(C(F)(F)F)n(C)c2=O)c(F)cc1Cl [249(R)],5 (Level 5: growth control rate is above 85%)
2,COC/C(C)=N/OC(=O)[C@@H](C)O/N=C/c1cc(-n2c(=O)cc(C(F)(F)F)n(C)c2=O)c(F)cc1Cl [253(R)],5 (Level 5: growth control rate is above 85%)

# Test system: Abutilon theophrasti
# Test: Weeding effect in post-emergence stage
# Type: in vivo
# Conditions: Dose 15 g/ha; level of fresh weight growth control rate
# In short: as §3
row,SMILES,"Weeding effect in post-emergence stage, Abutilon theophrasti"
1,CC/C(C)=N/OC(=O)[C@@H](C)O/N=C/c1cc(-n2c(=O)cc(C(F)(F)F)n(C)c2=O)c(F)cc1Cl [249(R)],5 (Level 5: growth control rate is above 85%)
2,COC/C(C)=N/OC(=O)[C@@H](C)O/N=C/c1cc(-n2c(=O)cc(C(F)(F)F)n(C)c2=O)c(F)cc1Cl [253(R)],5 (Level 5: growth control rate is above 85%)

# Test system: Setaria viridis
# Test: Weeding effect in post-emergence stage
# Type: in vivo
# Conditions: Dose 15 g/ha; level of fresh weight growth control rate
# In short: as §3
row,SMILES,"Weeding effect in post-emergence stage, Setaria viridis"
1,CC/C(C)=N/OC(=O)[C@@H](C)O/N=C/c1cc(-n2c(=O)cc(C(F)(F)F)n(C)c2=O)c(F)cc1Cl [249(R)],5 (Level 5: growth control rate is above 85%)
2,COC/C(C)=N/OC(=O)[C@@H](C)O/N=C/c1cc(-n2c(=O)cc(C(F)(F)F)n(C)c2=O)c(F)cc1Cl [253(R)],5 (Level 5: growth control rate is above 85%)

# Test system: Eleusine indica
# Test: Weeding effect in post-emergence stage
# Type: in vivo
# Conditions: Dose 15 g/ha; level of fresh weight growth control rate
# In short: as §3
row,SMILES,"Weeding effect in post-emergence stage, Eleusine indica"
1,CC/C(C)=N/OC(=O)[C@@H](C)O/N=C/c1cc(-n2c(=O)cc(C(F)(F)F)n(C)c2=O)c(F)cc1Cl [249(R)],5 (Level 5: growth control rate is above 85%)
2,COC/C(C)=N/OC(=O)[C@@H](C)O/N=C/c1cc(-n2c(=O)cc(C(F)(F)F)n(C)c2=O)c(F)cc1Cl [253(R)],5 (Level 5: growth control rate is above 85%)

# Test system: Alopecurus japonicus
# Test: Weeding effect in post-emergence stage
# Type: in vivo
# Conditions: Dose 15 g/ha; level of fresh weight growth control rate
# In short: as §3
row,SMILES,"Weeding effect in post-emergence stage, Alopecurus japonicus"
1,CC/C(C)=N/OC(=O)[C@@H](C)O/N=C/c1cc(-n2c(=O)cc(C(F)(F)F)n(C)c2=O)c(F)cc1Cl [249(R)],5 (Level 5: growth control rate is above 85%)
2,COC/C(C)=N/OC(=O)[C@@H](C)O/N=C/c1cc(-n2c(=O)cc(C(F)(F)F)n(C)c2=O)c(F)cc1Cl [253(R)],5 (Level 5: growth control rate is above 85%)

# Test system: Echinochloa crusgalli
# Test: Weeding effect in post-emergence stage
# Type: in vivo
# Conditions: Dose 15 g/ha; level of fresh weight growth control rate
# In short: as §3
row,SMILES,"Weeding effect in post-emergence stage, Echinochloa crusgalli"
1,CC/C(C)=N/OC(=O)[C@@H](C)O/N=C/c1cc(-n2c(=O)cc(C(F)(F)F)n(C)c2=O)c(F)cc1Cl [249(R)],5 (Level 5: growth control rate is above 85%)
2,COC/C(C)=N/OC(=O)[C@@H](C)O/N=C/c1cc(-n2c(=O)cc(C(F)(F)F)n(C)c2=O)c(F)cc1Cl [253(R)],5 (Level 5: growth control rate is above 85%)
